From patent EP2767275A1, “Nortriptyline, haloperidol or prochlorperazine edisylate for use in the treatment of tuberculosis as well as two screening methods” (priority 2013, dated 2014) come the findings set out here.

The test system of assay [1] is M. bovis BCG-GFP. Type of assay: cell-based. The settings on record: for pattern-specific score (PSS): 10µM, 48 hr.
The test system of assay [2] is HeLa cells stably expressing mRFP-GFP-LC3. The assay is classed as cell-based, human. The settings on record: for mRFP to GFP co-localisation: 2 hr, N and PE 10µM, Chloroquine 25 µM, BafilomycinA1 100nM; for co-localisation of mRFP and GFP over time: different periods of time. Here is the method: Second, an established assay was used for measuring autophagic flux based on a tandem mRFP-GFP-LC3 construct (Kimura et al., 2007). Since GFP is quenched in the acidic environment of autophagolysosomes whereas mRFP remains stable, agents blocking autophagy flux display higher colocalization of mRFP and GFP compared to those inducing autophagy. HeLa cells stably expressing mRFP-GFP-LC3 (Settembre et al., 2011) were treated with the compounds and the co-localization between mRFP and GFP was quantified. […] Similar results were obtained for the co-localisation of LC3-GFP with LBPA in HeLa-LC3-GFP cells (Figure 12D).
The increased acidification by PE is in apparent contradiction with the inhibition of autophagic flux. To solve this discrepancy, HeLa cells stably expressing mRFP-GFP- -LC3 were treated with the compounds for different periods of time.

For assay [3], the system named is M. bovis BCG-GFP. The assay is classed as cell-based. The settings on record: 10µM, 4 days plus 24hr with alamar blue. On the technique in general: Resazurin is reduced to fluorescent resorufin, in cell work by metabolically active cells.
Assay [4] has as its system M. bovis BCG-GFP. Type of assay: cell-based.
A further assay relates to HeLa cells. The assay can be described thus: High content autophagy assay (LC3 immunostaining). Type of assay: cell-based, human. The settings on record: 10µM (Rapamycin 5.5 µM), 4 hr. As for the experimental part: HeLa cells were treated with the compounds at a final concentration of 10µM, incubated for 4 hr, fixed with 3.7% PFA and immunostained with anti-LC3 antibody (clone PM036, MBL labs). Cells were counterstained by DAPI and Cell Mask Blue, imaged and analyzed as described above.
Autophagy is a key process regulated by mTOR (Laplante and Sabatini, 2012) and a known mediator of intracellular mycobacterial survival (Gutierrez et al., 2004; Kumar et al., 2010). The integration approach predicted that compounds from E1, but not E2, modulate autophagy. To test it, HeLa cells were treated with the compounds, immunostained for the autophagosome marker LC3 and multiple parameters reporting diverse facets of autophagosomes were extracted (Table 3). […] Of the three compounds validated in intracellular mycobacterial killing, Nortriptyline and PE belong to sub-cluster E1 whereas Haloperidol belongs to E2.

In a further assay the test system is HeLa BAC LC3-GFP. Type of assay: cell-based, human.
Assay [5] deals with M. bovis BCG-GFP. The assay is classed as cell-based. This is another data set of the same source.
Another assay concerns LC3. The note with it: for LC3-II band: 10 µM; for additive effects of BafilomycinA1 on LC3-II band: 10 µM with BafilomycinA1 100nM.
The test system of another assay is HeLa BAC GFP-Rab5c. The assay can be described thus: Cell-based LDL trafficking assay. Details: species or system human.
Assay [6] has as its system A431 cells stably expressing GFP-Rab5. The assay can be described thus: Live cell imaging of endosome motility. Type of assay: cell-based. The note with it: 10µM, 2 hr.

Where two headings read alike, the source gives them in different places.

`CSc1ccc2c(c1)C(N1CCN(C)CC1)Cc1ccccc1S2.O=C(O)/C=C\C(=O)O` (centres unmarked) [METHIOTHEPIN MALEATE]: the “pattern-specific score (PSS)” value in the assay with M. bovis BCG-GFP [1] turned out to be 0.9941.
Take `COc1cc2c3cc1Oc1cc(ccc1O)C[C@@H]1c4c(cc(OC)c(O)c4Oc4ccc(cc4)C[C@@H]3N(C)CC2)CC[N+]1(C)C.Cl.O.O.O.O.O.[Cl-]` [TUBOCURARINE CHLORIDE]: the “pattern-specific score (PSS)” value in the assay on M. bovis BCG-GFP [1] stood at 0.7944.
Regarding `Cn1cnc(N)c2ncnc1-2` [3-MA, 3-Methyl Adenine], the “effect of 3-MA on action of Nortriptyline on mycobacterial survival” value in the assay on M. bovis BCG-GFP [1] is listed as “reverted the effect of Nortriptyline on mycobacterial survival”.
Take `COc1cc2c(cc1OC)C1(O)C(=O)c3ccc(O)c(C(=O)O)c3OC1CO2` (centres unmarked) [12A-HYDROXY-9-DEMETHYLMUNDUSERONE-8-CARBOXYLIC ACID]: in the assay on M. bovis BCG-GFP [1], the “pattern-specific score (PSS)” value was 0.8387.
Consider `CCN(CC)CCCC(C)Nc1ccnc2cc(Cl)ccc12` (centres unmarked) [Chloroquine], for which, in [2], the “mRFP to GFP co-localisation” value is on record as “higher co-localisation”; the “co-localisation of mRFP and GFP over time” value (shortened to “co-localisation … over time”) is listed as “increased over time”.
As for `CC1(C)CC2C1CCC1(C)OC2(C)CCC1O` (centres unmarked) [3;7-EPOXYCARYOPHYLLAN-6-OL], the “pattern-specific score (PSS)” value in the assay with M. bovis BCG-GFP [1] was 0.7194.
The same measure, in the same setting: with `NC(C(=O)O)C(O)C(=O)O` [D;L-THREO-3-HYDROXYASPARTIC ACID] the figure was 0.8004; with `CN1CCc2c(c3ccccc3n2Cc2ccccc2)C1.CN1CCc2c(c3ccccc3n2Cc2ccccc2)C1.O=S(=O)(O)c1cccc2c(S(=O)(=O)O)cccc12` [MEBHYDROLIN NAPHTHALENESULFONATE], 0.9999.
Turning to `CNCCC=C1c2ccccc2CCc2ccccc21` [Nortriptyline, 3-(10,11-dihydro-5H-dibenzo[a,d]cyclohepten-5-ylidene)-N-methyl-1-propanamine], in the assay on M. bovis BCG-GFP [1], the “phenotype (phenotypic profile) in mycobacteria high content screen” value (“phenotype (phenotypic profile)” for short) was “reduced bacterial intensity, fewer bacteria and infected cells”. For the same compound, the “effect in the alamar blue screen” value with M. bovis BCG-GFP [3] was “lack of effect”. In addition, in the assay on M. bovis BCG-GFP [4], the “bacteriostatic activity on M. bovis BCG-GFP at neutral and acidic pH” value (shortened to “bacteriostatic activity”) is reported as “did not show bacteriostatic activity”. Further, the effect on autophagy entry in the assay with HeLa cells was “strong effect on autophagy”. Also, the “additive effect with BafilomycinA1 and Chloroquine in increasing LC3-GFP vesicles” value in the assay with HeLa BAC LC3-GFP is recorded as “had an additive effect”. Also, the “mRFP to GFP co-localisation” value in assay [2] is reported as “low mRFP to GFP co-localisation”. In the assay with M. bovis BCG-GFP [5], the “synergy with IFN-γ on mycobacterial survival” value is “synergized strongly with IFN-γ”. Besides, in the assay with LC3, the LC3-II band entry was “significant increase in the LC3-II band” and the “additive effects of BafilomycinA1 on LC3-II band” value is “additive effects of BafilomycinA1 were seen”.
For the compound `CN(C)c1nc(N)c(C(=O)N=C(N)N)nc1Cl` [N;N-DIMETHYLAMILORIDE], the “pattern-specific score (PSS)” value with M. bovis BCG-GFP [1] is 0.5976.
For `CC([C@H](O)c1ccccc1)N(C)C` (stereo partly drawn) [N-METHYL (-)EPHEDRINE], in the assay with M. bovis BCG-GFP [1], the “pattern-specific score (PSS)” value turned out to be 0.8936.
With `CO/N=C(\C(=O)N[C@@H]1C(=O)N2C(C(=O)OCOC(=O)C(C)(C)C)=C(/C=C\c3scnc3C)CS[C@H]12)c1csc(N)n1` [CEFDITORIN PIVOXIL], the “pattern-specific score (PSS)” value in the assay on M. bovis BCG-GFP [1] was determined as 0.8626.
As to `CN1CCN(CCCN2c3ccccc3Sc3ccc(Cl)cc32)CC1` [Prochlorperazine edisylate, 2-chloro-10-[3-(4-methyl-1-piperazinyl)propyl]-10H-phenothiazine], in the assay on M. bovis BCG-GFP [1], the “phenotype (phenotypic profile)” value was “reduced bacterial intensity, fewer bacteria and infected cells”. The “effect in the alamar blue screen” value in the assay on M. bovis BCG-GFP [3] is “lack of effect”. Besides, the “bacteriostatic activity” value in the assay with M. bovis BCG-GFP [4] (10 µM) is “did not show bacteriostatic activity”. In addition, the effect on autophagy entry in the assay on HeLa cells is “strong effect on autophagy”. For the same compound, the “additive effect with BafilomycinA1 and Chloroquine in increasing LC3-GFP vesicles” value with HeLa BAC LC3-GFP (10 µM, 4 hours, Chloroquine 25 µM, BafilomycinA1 100nM) was “not”. For the same compound, in [2], the “mRFP to GFP co-localisation” value was “higher co-localisation”; the “co-localisation … over time” value is recorded as “increased within the first hr but then progressively decreased”. Further, in the assay on M. bovis BCG-GFP [5], the “synergy with IFN-γ on mycobacterial survival” value is reported as “much weaker effect”. For the same compound, in the assay with LC3, the LC3-II band result is reported as “significant increase in the LC3-II band” and the “additive effects of BafilomycinA1 on LC3-II band” value is recorded as “not”.
For the compound TOTAROL ACETATE, the “pattern-specific score (PSS)” value with M. bovis BCG-GFP [1] is given as 0.7904.
Same read-out and setting: then `OC[C@@H](O)[C@@H](OC1O[C@H](CO)[C@@H](O)[C@H](O)[C@H]1O)[C@H](O)[C@@H](O)CO` (some centres unmarked) [GLUCITOL-4-GUCOPYANOSIDE], with 0.8836; and `C[C@@H]1CC[C@@]2(OC1)O[C@H]1C[C@H]3[C@@H]4CC[C@@H]5C[C@@H](O)CC[C@]5(C)[C@H]4CC[C@]3(C)[C@H]1[C@@H]2C` [SMILAGENIN], with 0.7198; and `O=c1cc(-c2cc(O)c(O)c(O)c2)oc2cc(O)cc(O)c12` [HIERACIN], with 0.3164.
Consider `O=C(CCCN1CCC(O)(c2ccc(Cl)cc2)CC1)c1ccc(F)cc1` [Haloperidol, 4-[4-(4-chlorophenyl)-4-hydroxy-1-piperidyl]-1-(4-fluorophenyl)-butan-1-one], for which, in the assay on M. bovis BCG-GFP [1], the “phenotype (phenotypic profile)” value is “reduced bacterial intensity, fewer bacteria and infected cells”. The “effect in the alamar blue screen” value with M. bovis BCG-GFP [3] is listed as “lack of effect”. The “bacteriostatic activity” value in the assay on M. bovis BCG-GFP [4] (10 µM) is “did not show bacteriostatic activity”. For the same compound, the effect on autophagy result in the assay with HeLa cells was “did not”. The “intensity of LDL in early and late endosomes” value with HeLa BAC GFP-Rab5c (10µM, LDL pulse for different times) is reported as “significantly increased the intensity of LDL in late, but not early endosomes”. Moreover, the “size, number and position of LDL-containing late endosomes” value with HeLa BAC GFP-Rab5c (10 µM, late, but not early endosomes) was “larger, more numerous and closer to the cell centre”. Besides, in [6], the “mean square displacement of endosomes” value is “long, but not short, time-scale movements of GFP-Rab5 endosomes were significantly accelerated” and the “motility of early endosomes” value was “much higher motility of early endosomes harboring high levels of Rab5”.
As for `CO/C1=C\C(C)=C\[C@@H](C)[C@@H](O)[C@@H](C)C/C(C)=C/C=C/[C@H](OC)[C@@H]([C@@H](C)[C@@H](O)[C@H](C)[C@@]2(O)C[C@@H](O)[C@H](C)[C@@H](C(C)C)O2)OC1=O` [BafilomycinA1], in assay [2], the “mRFP to GFP co-localisation” value was “higher co-localisation”; the “co-localisation … over time” value is recorded as “increased over time”.
For the compound `O=S(=O)(NCCNC/C=C/c1ccc(Br)cc1)c1cccc2cnccc12` [H89], the “pattern-specific score (PSS)” value in the assay with M. bovis BCG-GFP [1] is recorded as 0.9636.
The same measure, in the same setting: then TRIMEPRAZINE TARTRATE, with 1.
